Measurements taken from PMC6650409, “Modeling the binding of diverse ligands within the Ah receptor ligand binding domain” (Scientific Reports, 2019).
Residue numbers refer to the chain shown, from its start. Like-named read-outs stand apart in the source and are kept apart here.

Assays:
C327A mutant AhR = molecular target: T1, C327A mutant AhR (Mus musculus, UniProt P30561, C327A); assay: [3H]TCDD competitive ligand binding, C327A mutant AhR; conditions: for change of relative binding affinity versus wild-type AhR: C327A mutation, in words; for IC50: Table S6, AhR mutant C327A
T1 construct: made in house; host or cells: in vitro, Promega TNT Quick rabbit reticulocyte lysate
T1 sequence (P30561 10-848 C327A): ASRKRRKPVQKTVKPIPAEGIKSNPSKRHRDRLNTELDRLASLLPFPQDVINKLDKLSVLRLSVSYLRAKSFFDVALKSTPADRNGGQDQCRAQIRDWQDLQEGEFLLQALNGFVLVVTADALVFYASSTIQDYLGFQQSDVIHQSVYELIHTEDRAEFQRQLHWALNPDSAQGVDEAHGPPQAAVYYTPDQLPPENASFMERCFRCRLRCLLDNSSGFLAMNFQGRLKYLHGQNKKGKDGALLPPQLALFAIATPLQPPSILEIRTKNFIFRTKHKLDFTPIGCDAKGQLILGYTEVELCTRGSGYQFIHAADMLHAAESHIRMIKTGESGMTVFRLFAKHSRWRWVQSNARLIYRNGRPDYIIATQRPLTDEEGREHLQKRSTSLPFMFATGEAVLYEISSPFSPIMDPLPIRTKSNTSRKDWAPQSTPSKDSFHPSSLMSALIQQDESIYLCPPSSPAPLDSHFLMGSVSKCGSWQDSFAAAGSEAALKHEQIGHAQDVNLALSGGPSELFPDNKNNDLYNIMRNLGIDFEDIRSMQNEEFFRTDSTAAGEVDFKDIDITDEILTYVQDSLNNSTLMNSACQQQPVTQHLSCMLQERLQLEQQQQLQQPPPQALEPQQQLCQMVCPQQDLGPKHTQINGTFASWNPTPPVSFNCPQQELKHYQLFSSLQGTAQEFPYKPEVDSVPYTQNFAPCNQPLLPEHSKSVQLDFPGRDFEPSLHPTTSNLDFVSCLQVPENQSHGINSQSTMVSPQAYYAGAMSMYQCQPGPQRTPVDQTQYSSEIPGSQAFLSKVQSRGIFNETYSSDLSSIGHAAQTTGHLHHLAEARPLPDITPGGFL
Method: The mouse AhR (mAhR) and ARNT (mARNT) expression plasmids, mβAhR/pcDNA3 and mβArnt/pcDNA3, have been previously described. Point mutations of mβAhR/pcDNA3 were carried out using the QuikChange Lightning Mutagenesis Kit (Agilent Technologies) and all constructs were verified by sequencing.
[^3H]TCDD specific binding to wild-type or mutant mAhRs synthesized in vitro using the Promega TNT Quick coupled transcription/translation rabbit reticulocyte lysate kit (Madison, WI) was carried out as previously described. [^3H]TCDD specific binding was determined by subtracting the amount of [^3H]TCDD bound to unprogrammed lysate (nonspecific binding) from the total amount of [^3H]TCDD binding to lysate containing in vitro expressed AhR. The amount of [^3H]TCDD specific binding remaining in the presence of the indicated competitor chemical was expressed as a percent of the total [^3H]TCDD specific binding. The relative binding affinity (IC50) of each chemical was determined from concentration-dependent competitive inhibition curves obtained using [^3H]TCDD and increasing concentrations of each test chemical and the mean IC50 value was determined using three-parameter non-linear regression.

L309A mutant AhR = molecular target: T2, L309A mutant AhR (Mus musculus, UniProt P30561, L309A); assay: AhR DNA binding (gel retardation) assay, L309A mutant AhR; format: biochemical; conditions: L309A substitution; relative to wt mAhR activated by TCDD; single maximal ligand concentration
T2 construct: made in house; host or cells: in vitro transcription/translation (rabbit reticulocyte lysate)
Method: (§1) Wild-type and mutant mAhRs and mARNT were synthesized in vitro in the presence of unlabeled L-methionine, the resulting mAhRs and mARNT translation mixtures and MEDGK (25 mM MOPS (3-(N-morpholino)propanesulfonic acid; pH 7.5), 1 mM EDTA, 1 mM dithiothreitol, 10% (v/v) glycerol, 150 mM KCl) were mixed in a 1:1:8 (v/v/v) ratio and incubated with DMSO (1% final concentration) or the indicated concentration of TCDD or test chemical for 2 hours at room temperature. An aliquot of each incubation was mixed with [^32P]-labeled double-stranded oligonucleotide containing the mouse AhR DNA binding site DRE3 (a dioxin responsive element from the upstream region of the murine Cyp1a1 gene[71]) and protein-DNA complexes resolved by gel retardation analysis as previously described in detail. Gels were visualized using a FLA9000 Fujifilm Imager and protein-DNA complexes quantitated with Fujifilm MultiGauge software. For potency measurements, reactions were incubated with increasing concentrations of the test chemical and the chemical concentration producing half maximal AhR:ARNT:DRE complex formation (EC50) determined.

L302A mutant AhR = molecular target: T3, L302A mutant AhR (Mus musculus, UniProt P30561, L302A); assay: AhR DNA binding (gel retardation) assay, L302A mutant AhR; format: biochemical; conditions: L302A mutation; single maximal ligand concentration; in words
T3 construct: made in house; host or cells: in vitro transcription/translation (rabbit reticulocyte lysate)
T3 sequence (P30561 10-848 L302A): T1 sequence (P30561 10-848 C327A) with L293A, A318C
Method: as §1

T2 sequence (P30561 10-848 L309A): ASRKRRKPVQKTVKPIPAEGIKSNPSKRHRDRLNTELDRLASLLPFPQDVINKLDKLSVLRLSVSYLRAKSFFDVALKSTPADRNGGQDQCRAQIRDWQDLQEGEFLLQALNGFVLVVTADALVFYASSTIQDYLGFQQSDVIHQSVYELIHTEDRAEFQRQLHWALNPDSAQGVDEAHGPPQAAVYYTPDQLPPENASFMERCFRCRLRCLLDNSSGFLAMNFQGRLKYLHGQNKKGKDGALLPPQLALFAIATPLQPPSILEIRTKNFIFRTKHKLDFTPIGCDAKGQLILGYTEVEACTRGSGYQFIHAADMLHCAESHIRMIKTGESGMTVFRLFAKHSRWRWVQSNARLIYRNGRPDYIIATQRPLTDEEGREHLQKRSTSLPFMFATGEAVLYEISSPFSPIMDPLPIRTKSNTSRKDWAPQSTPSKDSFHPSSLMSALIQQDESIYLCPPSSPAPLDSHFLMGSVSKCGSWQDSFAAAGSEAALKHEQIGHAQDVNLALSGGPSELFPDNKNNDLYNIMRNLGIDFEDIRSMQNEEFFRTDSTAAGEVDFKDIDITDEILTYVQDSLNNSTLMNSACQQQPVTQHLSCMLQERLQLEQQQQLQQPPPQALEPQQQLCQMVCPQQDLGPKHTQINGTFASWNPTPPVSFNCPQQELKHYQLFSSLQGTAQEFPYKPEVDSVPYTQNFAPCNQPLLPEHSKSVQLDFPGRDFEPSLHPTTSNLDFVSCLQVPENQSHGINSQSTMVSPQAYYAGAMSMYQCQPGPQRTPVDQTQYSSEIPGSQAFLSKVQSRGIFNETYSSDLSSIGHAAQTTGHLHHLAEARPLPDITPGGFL
T2 sequence (P53762 whole entry partner): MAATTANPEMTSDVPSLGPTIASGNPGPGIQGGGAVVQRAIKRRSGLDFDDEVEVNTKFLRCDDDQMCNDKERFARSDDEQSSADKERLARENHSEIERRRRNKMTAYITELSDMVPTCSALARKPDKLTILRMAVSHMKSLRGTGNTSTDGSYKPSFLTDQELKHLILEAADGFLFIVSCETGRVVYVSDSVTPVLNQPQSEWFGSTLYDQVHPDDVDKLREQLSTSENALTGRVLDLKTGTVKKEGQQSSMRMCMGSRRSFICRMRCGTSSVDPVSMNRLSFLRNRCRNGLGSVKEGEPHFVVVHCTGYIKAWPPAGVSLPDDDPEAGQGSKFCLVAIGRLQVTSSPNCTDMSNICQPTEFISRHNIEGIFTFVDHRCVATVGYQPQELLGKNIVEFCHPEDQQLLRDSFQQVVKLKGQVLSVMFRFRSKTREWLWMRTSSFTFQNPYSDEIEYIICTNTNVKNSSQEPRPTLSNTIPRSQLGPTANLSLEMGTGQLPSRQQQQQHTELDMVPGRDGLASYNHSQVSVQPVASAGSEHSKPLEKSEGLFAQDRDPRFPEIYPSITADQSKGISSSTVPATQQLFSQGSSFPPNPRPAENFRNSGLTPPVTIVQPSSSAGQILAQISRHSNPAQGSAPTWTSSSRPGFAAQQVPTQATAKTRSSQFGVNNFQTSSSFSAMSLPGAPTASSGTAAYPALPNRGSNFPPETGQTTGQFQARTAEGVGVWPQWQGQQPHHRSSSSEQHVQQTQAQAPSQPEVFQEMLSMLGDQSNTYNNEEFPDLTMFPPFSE

With `O=c1cc(-c2ccccc2)oc2ccc3ccccc3c12` [BNF] the “change of relative binding affinity versus wild-type AhR” value (C327A mutant AhR) was “significantly decreased” and the IC50 (C327A mutant AhR; read-out: IC50) was 40.5 nM.

With `c1ccc2c(c1)cc1ccc3cccc4ccc2c1c34` [BaP, Benzo(a)pyrene] the “ligand-induced AhR DNA binding” value (L309A mutant AhR) was “little to no” and the “ligand-stimulated AhR DNA binding” value (L302A mutant AhR) was “eliminated or greatly reduced”.

With `c1ccc2c(c1)ccc1cc3c(ccc4ccccc43)cc12` [DBA, dibenz(a,h)anthracene] the “change of relative binding affinity versus wild-type AhR” value (C327A mutant AhR) was “no significant effect”, the IC50 (C327A mutant AhR; read-out: -LogIC50 (converted)) was 14.8 nM and the IC50 (C327A mutant AhR; read-out: IC50) was 14.6 nM.

`O=Cc1c2[nH]c3ccccc3c2cc2[nH]c3ccccc3c12` [FICZ, 6-formylindolo[3,2-b]carbazole] was tested, and the “change of relative binding affinity versus wild-type AhR” value (C327A mutant AhR) was “no significant effect” and the IC50 (C327A mutant AhR; read-out: IC50) was 4.32 nM.

For `Clc1cc2c(cc1Cl)Oc1cc(Cl)c(Cl)cc1O2` [TCDD, 2,3,7,8-tetrachlorodibenzo-p-dioxin], the “ligand-induced AhR DNA binding” value (L309A mutant AhR) was “less than 25%” and the “ligand-stimulated AhR DNA binding” value (L302A mutant AhR) was “eliminated or greatly reduced”.

`Clc1cc2oc3cc(Cl)c(Cl)cc3c2cc1Cl` [TCDF, 2,3,7,8-tetrachlorodibenzofuran] was tested, and the “ligand-induced AhR DNA binding” value (L309A mutant AhR) was “little to no” and the “ligand-stimulated AhR DNA binding” value (L302A mutant AhR) was “eliminated or greatly reduced”.
